Measured values from patent publication US12091402B2 (Avilar Therapeutics, Inc., priority 2021, dated 2024).

Target: T1, ASGPR (Homo sapiens, UniProt P07306)
T1 sequence (P07306 1-291): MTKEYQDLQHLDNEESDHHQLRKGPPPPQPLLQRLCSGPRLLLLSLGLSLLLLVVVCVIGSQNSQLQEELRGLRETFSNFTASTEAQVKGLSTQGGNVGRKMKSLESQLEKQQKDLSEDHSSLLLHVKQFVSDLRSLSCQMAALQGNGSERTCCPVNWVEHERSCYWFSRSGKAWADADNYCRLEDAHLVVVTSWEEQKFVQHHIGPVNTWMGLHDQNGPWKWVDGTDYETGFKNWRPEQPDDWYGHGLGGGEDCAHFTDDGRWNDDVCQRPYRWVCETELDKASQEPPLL
Assay: Affinity to ASGPR by surface plasmon resonance (SPR)
Procedure: Biotinylated ASGPR (20 μg/ml) was immobilized on SA sensor chips (GE Healthcare) at flow rate of 5 μl/min for 90 sec reaching an immobilization level ranging from 500-3000 resonance units (RU). The running buffer was 50 mM HEPES, pH7.5, 150 mM NaCl, 50 mM CaCl2), 0.01% P20, 3% DMSO. The concentration of compounds vary from 2 mM to 5 nM depending on Kd values. The compounds are diluted 2 or 3-fold with 8 concentration points. Solutions containing serially diluted compounds are injected at a flow rate of 40 μL/min for 150-300 sec followed by a 90-300 sec dissociation phase for each concentration. The surface was regenerated using 50 mM HEPES, pH 7.5, 150 mM NaCl, 5 mM EDTA, 0.01% P20, 3% DMSO.
Data was processed using the analysis software in Biacore 8K to perform background subtraction, double referencing, and solvent correction. Values of affinity expressed as the dissociation constants (Kd) were determined by fitting the steady state binding responses (RUs) as a function of the concentration ([Compound]) using the following equation: RU=RUmax/(KD+[Compound]), where RU max is the calculated maximal response. Where appropriate double-referenced data were fit to using a 1:1 binding model for kinetic analysis.

| Structure (SMILES) | Kd |
| --- | --- |
| OC[C@@]12CO[C@@H](O1)[C@H](Nc1nccc(C(F)(F)F)c1F)[C@@H](O)[C@H]2O [A42, (1S,2R,3R,4R,5S)-4-[[3-fluoro-4-(trifluoromethyl)-2-pyridyl]amino]-1-(hydroxymethyl)-6,8-dioxabicyclo[3.2.1]octane-2,3-diol] | 10000 to 100000 nM |
| OC[C@@]12CO[C@@H](O1)[C@H](Nc1cc(Cl)cnc1Cl)[C@@H](O)[C@H]2O [A44, (1S,2R,3R,4R,5S)-4-[(2,5-dichloro-3-pyridyl)amino]-1-(hydroxymethyl)-6,8-dioxabicyclo[3.2.1]octane-2,3-diol] | < 1000 nM |
| OC[C@@]12CO[C@@H](O1)[C@H](Nc1nc3ccccc3o1)[C@@H](O)[C@H]2O [A45, (1S,2R,3R,4R,5S)-4-(benzo[d]oxazol-2-ylamino)-1-(hydroxymethyl)-6,8-dioxabicyclo[3.2.1]octane-2,3-diol] | 1000 to 10000 nM |
| COc1cc(C(F)(F)F)nc(N[C@H]2[C@H]3OC[C@](CO)(O3)[C@H](O)[C@@H]2O)n1 [A46, (1S,2R,3R,4R,5S)-1-(hydroxymethyl)-4-((4-methoxy-6-(trifluoromethyl)pyrimidin-2-yl)amino)-6,8-dioxabicyclo[3.2.1]octane-2,3-diol] | < 1000 nM |
| COc1cc(N[C@H]2[C@H]3OC[C@](CO)(O3)[C@H](O)[C@@H]2O)nc(C(F)(F)F)n1 [A47, (1S,2R,3R,4R,5S)-1-(hydroxymethyl)-4-((6-methoxy-2-(trifluoromethyl)pyrimidin-4-yl)amino)-6,8-dioxabicyclo[3.2.1]octane-2,3-diol] | < 1000 nM |
| COC(=N)c1cc(OC)nc(N[C@H]2CO[C@H](CO)[C@H](O)[C@@H]2O)n1 [A48, methyl 2-(((3S,4R,5R,6R)-4,5-dihydroxy-6-(hydroxymethyl)tetrahydro-2H-pyran-3-yl)amino)-6-methoxypyrimidine-4-carbimidate] | 1000 to 10000 nM |
| OC[C@H]1OC[C@H](Nc2ncnn3cccc23)[C@@H](O)[C@H]1O [A49, (2R,3R,4R,5S)-2-(hydroxymethyl)-5-(pyrrolo[2,1-f][1,2,4]triazin-4-ylamino)tetrahydro-2H-pyran-3,4-diol] | 1000 to 10000 nM |
| C[C@@H]1O[C@H](CO)[C@H](O)[C@H](O)[C@H]1N=[N+]=[N-] [A50, (2R,3R,4R,5R,6S)-5-azido-2-(hydroxymethyl)-6-methyltetrahydro-2H-pyran-3,4-diol] | > 20000 nM |
| C=CCO[C@H]1O[C@H](CO)[C@H](O)[C@H](O)[C@H]1N [A52, (2R,3R,4R,5R,6S)-6-(allyloxy)-5-amino-2-(hydroxymethyl)tetrahydro-2H-pyran-3,4-diol] | > 20000 nM |
| NC(=O)c1sc(N[C@H]2CO[C@H](CO)[C@H](O)[C@@H]2O)nc1C(F)(F)F [A54, 2-(((3S,4R,5R,6R)-4,5-dihydroxy-6-(hydroxymethyl)tetrahydro-2H-pyran-3-yl)amino)-4-(trifluoromethyl)thiazole-5-carboxamide] | > 20000 nM |
| C[C@@H]1O[C@H](CO)[C@H](O)[C@H](O)[C@H]1Nc1nccc(C(F)(F)F)n1 [A55, (2R,3R,4R,5R,6S)-2-(hydroxymethyl)-6-methyl-5-((4-(trifluoromethyl)pyrimidin-2-yl)amino)tetrahydro-2H-pyran-3,4-diol] | 10000 to 100000 nM |
| C[C@@H]1O[C@H](CO)[C@H](O)[C@H](O)[C@H]1Nc1nc(Cl)ns1 [A56, (2R,3R,4R,5R,6S)-5-((3-chloro-1,2,4-thiadiazol-5-yl)amino)-2-(hydroxymethyl)-6-methyltetrahydro-2H-pyran-3,4-diol] | 1000 to 10000 nM |
| C=CCO[C@H]1O[C@H](Cn2cc(-c3cccc(OC)c3)nn2)[C@H](O)[C@H](O)[C@H]1NC(=O)C(F)(F)F [A57, N-((2S,3R,4R,5R,6R)-2-(allyloxy)-4,5-dihydroxy-6-((4-(3-methoxyphenyl)-1H-1,2,3-triazol-1-yl)methyl)tetrahydro-2H-pyran-3-yl)-2,2,2-trifluoroacetamide] | 1000 to 10000 nM |
| C=CCO[C@H]1O[C@H](Cn2cc(-c3cccc(OC)c3)nn2)[C@H](O)[C@H](O)[C@H]1Nc1nccc(C(F)(F)F)n1 [A58, (2R,3R,4R,5R,6S)-6-(allyloxy)-2-((4-(3-methoxyphenyl)-1H-1,2,3-triazol-1-yl)methyl)-5-((4-(trifluoromethyl)pyrimidin-2-yl)amino)tetrahydro-2H-pyran-3,4-diol] | 1000 to 10000 nM |
| [N-]=[N+]=NC[C@H]1OC[C@H](Nc2nccc(C(F)(F)F)n2)[C@@H](O)[C@H]1O [A59, (2R,3R,4R,5S)-2-(azidomethyl)-5-((4-(trifluoromethyl)pyrimidin-2-yl)amino)tetrahydro-2H-pyran-3,4-diol] | < 1000 nM |
| CN(c1nccc(C(F)(F)F)n1)[C@H]1CO[C@H](CO)[C@H](O)[C@@H]1O [A60, (2R,3R,4R,5S)-2-(hydroxymethyl)-5-(methyl(4-(trifluoromethyl)pyrimidin-2-yl)amino)tetrahydro-2H-pyran-3,4-diol] | 1000 to 10000 nM |

| Structure (SMILES) | Kd |
| --- | --- |
| COc1cccc(-n2cc([C@H]3OC[C@H](Nc4nccc(C(F)(F)F)n4)[C@@H](O)[C@H]3O)nn2)c1 [A61, (2R,3R,4R,5S)-2-(1-(3-methoxyphenyl)-1H-1,2,3-triazol-4-yl)-5-((4-(trifluoromethyl)pyrimidin-2-yl)amino)tetrahydro-2H-pyran-3,4-diol] | 10000 to 100000 nM |
| OCc1cnn(C[C@H]2OC[C@H](Nc3nccc(C(F)(F)F)n3)[C@@H](O)[C@H]2O)c1 [A62, (2R,3R,4R,5S)-2-((4-(hydroxymethyl)-1H-pyrazol-1-yl)methyl)-5-((4-(trifluoromethyl)pyrimidin-2-yl)amino)tetrahydro-2H-pyran-3,4-diol] | 1000 to 10000 nM |
| C=CCO[C@H]1O[C@H](Cn2cc(CO)nn2)[C@H](O)[C@H](O)[C@H]1NC(=O)C(F)(F)F [A63, N-((2S,3R,4R,5R,6R)-2-(allyloxy)-4,5-dihydroxy-6-((4-(hydroxymethyl)-1H-1,2,3-triazol-1-yl)methyl)tetrahydro-2H-pyran-3-yl)-2,2,2-trifluoroacetamide] | 1000 to 10000 nM |
| C=CCO[C@H]1O[C@H](Cn2cc(CO)nn2)[C@H](O)[C@H](O)[C@H]1Nc1nccc(C(F)(F)F)n1 [A64, (2R,3R,4R,5R,6S)-6-(allyloxy)-2-((4-(hydroxymethyl)-1H-1,2,3-triazol-1-yl)methyl)-5-((4-(trifluoromethyl)pyrimidin-2-yl)amino)tetrahydro-2H-pyran-3,4-diol] | 1000 to 10000 nM |
| COc1cccc(-c2cn(C[C@H]3OC[C@H](Nc4nccc(C(F)(F)F)n4)[C@@H](O)[C@H]3O)nn2)c1 [A65, (2R,3R,4R,5S)-2-((4-(3-methoxyphenyl)-1H-1,2,3-triazol-1-yl)methyl)-5-((4-(trifluoromethyl)pyrimidin-2-yl)amino)tetrahydro-2H-pyran-3,4-diol] | < 1000 nM |
| C[Si](C)(C)c1cn(C[C@H]2OC[C@H](Nc3nccc(C(F)(F)F)n3)[C@@H](O)[C@H]2O)nn1 [A66, (2R,3R,4R,5S)-5-((4-(trifluoromethyl)pyrimidin-2-yl)amino)-2-((4-(trimethylsilyl)-1H-1,2,3-triazol-1-yl)methyl)tetrahydro-2H-pyran-3,4-diol] | 1000 to 10000 nM |
| O[C@@H]1[C@H](O)[C@@H](Nc2nccc(C(F)(F)F)n2)CO[C@@H]1Cn1ccnn1 [A67, (2R,3R,4R,5S)-2-((1H-1,2,3-triazol-1-yl)methyl)-5-((4-(trifluoromethyl)pyrimidin-2-yl)amino)tetrahydro-2H-pyran-3,4-diol] | < 1000 nM |
| OCc1cn(C[C@H]2OC[C@H](Nc3nccc(C(F)(F)F)n3)[C@@H](O)[C@H]2O)nn1 [A68, (2R,3R,4R,5S)-2-((4-(hydroxymethyl)-1H-1,2,3-triazol-1-yl)methyl)-5-((4-(trifluoromethyl)pyrimidin-2-yl)amino)tetrahydro-2H-pyran-3,4-diol] | < 1000 nM |
| C=CCO[C@H]1O[C@H](Cn2ccnn2)[C@H](O)[C@H](O)[C@H]1Nc1nccc(C(F)(F)F)n1 [A69, (2R,3R,4R,5R,6S)-2-((1H-1,2,3-triazol-1-yl)methyl)-6-(allyloxy)-5-((4-(trifluoromethyl)pyrimidin-2-yl)amino)tetrahydro-2H-pyran-3,4-diol] | < 1000 nM |
| C=CCO[C@H]1O[C@H](Cn2ccnn2)[C@H](O)[C@H](O)[C@H]1NC(=O)C(F)(F)F [A70, N-((2S,3R,4R,5R,6R)-6-((1H-1,2,3-triazol-1-yl)methyl)-2-(allyloxy)-4,5-dihydroxytetrahydro-2H-pyran-3-yl)-2,2,2-trifluoroacetamide] | < 1000 nM |
| C=CCO[C@H]1O[C@H](CN=[N+]=[N-])[C@H](O)[C@H](O)[C@H]1Nc1nccc(C(F)(F)F)n1 [A72, (2R,3R,4R,5R,6S)-6-(allyloxy)-2-(azidomethyl)-5-((4-(trifluoromethyl)pyrimidin-2-yl)amino)tetrahydro-2H-pyran-3,4-diol] | < 1000 nM |
| N=C(N)N[C@H]1CO[C@H](COCc2ccccc2)[C@H](OCc2ccccc2)[C@@H]1OCc1ccccc1 [A73, 1-((3S,4R,5R,6R)-4,5-bis(benzyloxy)-6-((benzyloxy)methyl)tetrahydro-2H-pyran-3-yl)guanidine] | > 20000 nM |
| [N-]=[N+]=NC[C@@]12CO[C@@H](O1)[C@H](Nc1nc(Cl)ns1)[C@@H](O)[C@H]2O [A74, (1S,2R,3R,4R,5S)-1-(azidomethyl)-4-((3-chloro-1,2,4-thiadiazol-5-yl)amino)-6,8-dioxabicyclo[3.2.1]octane-2,3-diol] | < 1000 nM |
| OC[C@H]1O[C@H](OCC2CO2)[C@H](Nc2nccc(C(F)(F)F)n2)[C@@H](O)[C@H]1O (stereo partly drawn) [A76, (2R,3R,4R,5R,6S)-2-(hydroxymethyl)-6-(oxiran-2-ylmethoxy)-5-((4-(trifluoromethyl)pyrimidin-2-yl)amino)tetrahydro-2H-pyran-3,4-diol] | < 1000 nM |
| OC[C@H]1OC[C@H](Nc2nc(C(F)(F)F)ccc2F)[C@@H](O)[C@H]1O [A77, (2R,3R,4R,5S)-5-((3-fluoro-6-(trifluoromethyl)pyridin-2-yl)amino)-2-(hydroxymethyl)tetrahydro-2H-pyran-3,4-diol] | < 1000 nM |
